Assay [1] deals with T1, GPR119 (Homo sapiens, UniProt Q8TDV5).
T1 construct: host or cells: CHO-K1 (GPR119 CRE-bla, doxycycline-induced)
T1 sequence (Q8TDV5 1-335): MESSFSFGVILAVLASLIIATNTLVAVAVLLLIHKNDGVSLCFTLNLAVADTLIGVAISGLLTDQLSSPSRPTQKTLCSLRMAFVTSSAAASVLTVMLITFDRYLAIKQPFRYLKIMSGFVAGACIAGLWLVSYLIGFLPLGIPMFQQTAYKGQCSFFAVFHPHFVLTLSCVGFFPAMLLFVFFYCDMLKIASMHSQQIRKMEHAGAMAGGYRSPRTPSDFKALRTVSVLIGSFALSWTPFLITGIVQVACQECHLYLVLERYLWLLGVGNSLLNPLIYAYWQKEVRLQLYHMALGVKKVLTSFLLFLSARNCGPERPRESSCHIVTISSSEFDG
The assay is described as follows: cAMP Accumulation Assay (GPR119 CRE-bla CHO-K1 cells, LiveBLAzer-FRET B/G). It is filed as cell-based. Conditions: (Emax of the test compound/Emax of MBX-2982)x100, 5 hours incubation.

The target of assay [2] is T1, GPR119. The description is as above. Conditions: for EC50: 5 hours incubation; for Emax (Fold): maximum activity, response ratio versus non-treated control group. It is filed as cell-based. As to the method:
32 μl of an assay medium (DMEM supplemented with GlutaMax™ 99%, dialyzed FBS 1%, non-essential amino acid 1 mM, HEPES 25 mM, penicillin 100 U/ml, and streptomycin 100 μg/ml) was added to each well of a 384 black well plate and then the GPR119 CRE-bla CHO-K1 cells (Invitrogen) were seeded in 1×10^4 cells per well. Doxycycline was dissolved in the assay medium in the concentration of 1 μg/ml. The resulting solution (4 μl) was added to each well, which was then incubated in a 5% CO 2 incubator at 37° C. for about 20 to 24 hours. Each test compounds were diluted with the assay medium to prepare 10 samples, which have concentrations ranging from […], respectively. Each samples (8 μl) was added to each well, which was then incubated in a 5% CO2 incubator at 37° C. for 5 hours. In case of the control group, the well was treated with a solution (8 μl) prepared by diluting dimethyl sulfoxide (DMSO) in the assay medium to 1%. The substrate mixture (8 μl) was added to each well, which was then left under darkness at room temperature for 2 hours. The substrate mixture contains the followings: 1 mM LiveBLAzer™-FRET B/G(CCF4-AM) substrate 6 μl, solution B 60 μl, solution C 904 μl, and solution D 30 μl.
Fluorescence intensity was determined under the wavelength conditions of 400 nm/465 nm (excitation/emission) for the blue channel and 400 nm/535 nm (excitation/emission) for the green channel, with the fluorescence microplate reader (SpectraFluor Plus. TECAN). The net activity of each well was calculated by subtracting the average value of the cell-free control group from the value of the unstimulated (i.e., non-treated) control group or the stimulated (i.e., test compound-treated) group at each wavelength. MBX-2982 (Metabolex) was used as a control drug. The response ratio was calculated by dividing the net signal ratio (465 nm/535 nm) of the control drug or the test compound by the net signal ratio (465 nm/535 nm) of the non-treated control group. The relative ratio (R.R) was calculated by dividing the maximum activity [Emax (fold)] of the test compound (i.e., % activity in comparison with the background) by the maximum activity [Emax (fold)] of the control drug (MBX-2982) [Emax (% RR)=(Emax of the test compound/Emax of MBX-2982)×100]. EC50 (half maximal effective concentration) was calculated using the software for statistical analysis “Prism 5.0 (GraphPad)”, based on the values obtained according to concentrations of the test compounds.

As a reminder, the EC50 is the concentration needed to bring the measured effect to its halfway point. High values mean a less potent agent, low ones a more potent agent. Turning to `CCc1cnc(N2CCN(c3ncc(-c4ccc(-n5cnn(CCNC(C)C)c5=O)c(F)c4)cc3C#N)[C@@H](C)C2)nc1.Cl` [Example 20, (S)-2-(4-(5-ethylpyrimidin-2-yl)-2-methylpiperazin-1-yl)-5-(3-fluoro-4-(1-(2-(isopropylamino)ethyl)-5-oxo-1H-1,2,4-triazol-4(5H)-yl)phenyl)nicotinonitrile hydrochloride], the “Emax (% RR)” value on GPR119 [1] was 109.6 % RR. Further, at GPR119 [2], the 50% effective concentration (EC50) worked out at 5.6 nM and the “Emax (Fold)” value is given as 3.1 Fold.
For `CCc1cnc(N2CCN(c3ncc(-c4ccc(-n5cnn([C@H]6CCNC6)c5=O)cc4)cc3C#N)CC2)nc1` [Example 42, (S)-2-(4-(5-ethylpyrimidin-2-yl)piperazin-1-yl)-5-(4-(5-oxo-1-(pyrrolidin-3-yl)-1H-1,2,4-triazol-4(5H)-yl)phenyl)nicotinonitrile] the same measures were 109.3 % RR, 21 nM and 3.0 Fold.
`CCc1cnc(N2CCN(c3ncc(-c4ccc(-n5cnn(CN6CCN(C)CC6)c5=O)c(F)c4)cc3C#N)[C@@H](C)C2)nc1` [Example 27, (S)-2-(4-(5-ethylpyrimidin-2-yl)-2-methylpiperazin-1-yl)-5-(3-fluoro-4-(1-((4-methylpiperazin-1-yl)methyl)-5-oxo-1H-1,2,4-triazol-4(5H)-yl)phenyl)nicotinonitrile]: at GPR119 [1], the “Emax (% RR)” value is listed as 149.4 % RR. On GPR119 [2], the EC50 stood at 3.1 nM and the “Emax (Fold)” value came to 4.0 Fold.
For `CCc1cnc(N2CCN(c3ncc(-c4ccc(-n5cnn(CCNS(C)(=O)=O)c5=O)c(F)c4)cc3C#N)[C@@H](C)C2)nc1` [Example 23, (S)—N-(2-(4-(4-(5-cyano-6-(4-(5-ethylpyrimidin-2-yl)-2-methylpiperazin-1-yl)pyridin-3-yl)-2-fluorophenyl)-5-oxo-4,5-dihydro-1H-1,2,4-triazol-1-yl)ethyl)methanesulfonamide] the same measures were 111.7 % RR, 7.9 nM and 3.4 Fold.
For `CCc1cnc(N2CCN(c3ncc(-c4ccc(-n5cnn(CCNC(C)=O)c5=O)c(F)c4)cc3C#N)[C@@H](C)C2)nc1` [Example 26, (S)—N-(2-(4-(4-(5-cyano-6-(4-(5-ethylpyrimidin-2-yl)-2-methylpiperazin-1-yl)pyridin-3-yl)-2-fluorophenyl)-5-oxo-4,5-dihydro-1H-1,2,4-triazol-1-yl)ethyl)acetamide] the same measures were 112.5 % RR, 20 nM and 3.4 Fold.
With `CCc1cnc(N2CCN(c3ncc(-c4ccc(-n5cnn(CC(C)(C)O)c5=O)c(F)c4)cc3C#N)[C@@H](C)C2)nc1` [Example 11, (S)-2-(4-(5-ethylpyrimidin-2-yl)-2-methylpiperazin-1-yl)-5-(3-fluoro-4-(1-(2-hydroxy-2-methylpropyl)-5-oxo-1H-1,2,4-triazol-4(5H)-yl)phenyl)nicotinonitrile], on GPR119 [1], the “Emax (% RR)” value amounted to 102.1 % RR. In addition, on GPR119 [2], the EC50 was determined as 5 nM and the “Emax (Fold)” value came to 2.9 Fold.
The corresponding values for `CC(C)c1nc(N2CCN(c3ncc(-c4ccc(-n5cnn(C(C)C)c5=O)c(F)c4)cc3C#N)CC2)no1` [Example 46, 5-(3-fluoro-4-(1-isopropyl-5-oxo-1H-1,2,4-triazol-4(5H)-yl)phenyl)-2-(4-(5-isopropyl-1,2,4-oxadiazol-3-yl)piperazin-1-yl)nicotinonitrile] are 133.3 % RR, 4.2 nM and 3.9 Fold.
The corresponding values for `COCCn1ncn(-c2ccc(-c3cnc(N4CCC(c5nnc(C(F)(F)F)o5)CC4)c(C#N)c3)cc2F)c1=O` [Example 76, 5-(3-fluoro-4-(1-(2-methoxyethyl)-5-oxo-1H-1,2,4-triazol-4(5H)-yl)phenyl)-2-(4-(5-(trifluoromethyl)-1,3,4-oxadiazol-2-yl)piperidin-1-yl)nicotinonitrile] are 101.8 % RR, 19.6 nM and 2.9 Fold.
`CCc1cnc(N2CCN(c3ncc(-c4cc(F)c(-n5cnn(C)c5=O)cc4F)cc3C#N)[C@@H](C)C2)nc1` [Example 29, (S)-5-(2,5-difluoro-4-(1-methyl-5-oxo-1H-1,2,4-triazol-4(5H)-yl)phenyl)-2-(4-(5-ethylpyrimidin-2-yl)-2-methylpiperazin-1-yl)nicotinonitrile]: the “Emax (% RR)” value at GPR119 [1] came to 110.1 % RR. Also, at GPR119 [2], the EC50 is 1.5 nM and the “Emax (Fold)” value was 3.1 Fold.
The corresponding values for `CCCn1ncn(-c2ccc(-c3cnc(N4CCN(C(=O)OC(C)(C)C)C[C@@H]4C)nc3)cc2F)c1=O` [Example 2, (S)-tert-butyl 4-(5-(3-fluoro-4-(5-oxo-1-propyl-1H-1,2,4-triazol-4(5H)-yl)phenyl)pyrimidin-2-yl)-3-methylpiperazin-1-carboxylate] are 101.6 % RR, 31.9 nM and 3.3 Fold.
The corresponding values for `CCCn1ncn(-c2ccc(-c3cnc(N4CCN(c5noc(C(C)C)n5)CC4)c(C#N)c3)cc2F)c1=O.Cl` [Example 49, 5-(3-fluoro-4-(5-oxo-1-propyl-1H-1,2,4-triazol-4(5H)-yl)phenyl)-2-(4-(5-isopropyl-1,2,4-oxadiazol-3-yl)piperazin-1-yl)nicotinonitrile hydrochloride] are 144.7 % RR, 7.3 nM and 4.2 Fold.
The corresponding values for `CC(C)c1nc(N2CCN(c3ncc(-c4ccc(-n5cnn(C)c5=O)c(F)c4)cc3C#N)CC2)no1` [Example 45, 5-(3-fluoro-4-(1-methyl-5-oxo-1H-1,2,4-triazol-4(5H)-yl)phenyl)-2-(4-(5-isopropyl-1,2,4-oxadiazol-3-yl)piperazin-1-yl)nicotinonitrile] are 144.7 % RR, 7.3 nM and 4.2 Fold.
`CC(C)n1ncn(-c2ccc(-c3cnc(N4CCC(c5nnc(C(F)(F)F)o5)CC4)c(C#N)c3)cc2)c1=O` [Example 73, 5-(4-(1-isopropyl-5-oxo-1H-1,2,4-triazol-4(5H)-yl)phenyl)-2-(4-(5-(trifluoromethyl)-1,3,4-oxadiazol-2-yl)piperidin-1-yl)nicotinonitrile]: the “Emax (% RR)” value at GPR119 [1] worked out at 101.3 % RR. Moreover, on GPR119 [2], the EC50 came out at 8.2 nM and the “Emax (Fold)” value is 2.9 Fold.
For `COCCn1ncn(-c2ccc(-c3cnc(N4CCN(C(=O)OC(C)(C)C)C[C@@H]4C)nc3)cc2F)c1=O` [Example 4, (S)-tert-butyl 4-(5-(3-fluoro-4-(1-(2-methoxyethyl)-5-oxo-1H-1,2,4-triazol-4(5H)-yl)phenyl)pyrimidin-2-yl)-3-methylpiperazin-1-carboxylate] the same measures were 108.0 % RR, 54.9 nM and 3.5 Fold.
For `CCn1ncn(-c2ccc(-c3cnc(N4CCC(c5nc(C(C)C)no5)CC4)c(C#N)c3)cc2)c1=O` [Example 65, 5-(4-(1-ethyl-5-oxo-1H-1,2,4-triazol-4(5H)-yl)phenyl)-2-(4-(3-isopropyl-1,2,4-oxadiazol-5-yl)piperidin-1-yl)nicotinonitrile] the same measures were 123.8 % RR, 2.4 nM and 3.6 Fold.
Turning to `CCc1cnc(N2CCN(c3ncc(-c4ccc(-n5cnn(CCNC(=O)OC(C)(C)C)c5=O)c(F)c4)cc3C#N)[C@@H](C)C2)nc1` [Example 16, (S)-tert-butyl 2-(4-(4-(5-cyano-6-(4-(5-ethylpyrimidin-2-yl)-2-methylpiperazin-1-yl)pyridin-3-yl)-2-fluorophenyl)-5-oxo-4,5-dihydro-1H-1,2,4-triazol-1-yl)ethylcarbamate], the “Emax (% RR)” value at GPR119 [1] was 116.8 % RR. On GPR119 [2], a half-maximal response (EC50) required 7.2 nM and the “Emax (Fold)” value was determined as 3.3 Fold.

These data come from patent US9663495B2 (YUHAN CORPORATION, priority 2013, dated 2017).
